{"source": "patent US20160324770A1", "about": "“INTRATHECAL ADMINISTRATION, PREFERABLY INTRAVENTRICULAR, OF MTOR INHIBITORS FOR THE THERAPY OF SOME NEURODEGENERATIVE, NEUROINFLAMMATORY AND NEURO-ONCOLOGIC DISEASES” (priority 2012, published 2016)", "origin": "cited, not measured here", "conditions": "cited from earlier work"}
{"smiles": "CO[C@H]1C[C@@H]2CC[C@@H](C)[C@@](O)(O2)C(=O)C(=O)N2CCCC[C@H]2C(=O)O[C@H]([C@H](C)C[C@@H]2CC[C@@H](O)[C@H](OC)C2)CC(=O)[C@H](C)/C=C(\\C)[C@@H](O)[C@@H](OC)C(=O)[C@H](C)C[C@H](C)/C=C/C=C/C=C/1C", "note": "[rapamycin]", "values": [{"measurement": "half-life", "setting": "according to the FDA", "value": 62, "unit": "h"}, {"measurement": "half-life compared to everolimus", "value": "more than double that time"}]}
